# In patent US7718784B2, “Switchable nucleic acids for diagnostics, screening and molecular electronics” (priority 2003, dated 2010):
# [dabcylT] = deoxythymidine carrying a dabcyl quencher; {FAM} = fluorescein (FAM) label; d = 2'-deoxy (DNA); r = 2'-OH (RNA)
# Tests used:
# NCp7 = NCp7 (Human immunodeficiency virus type 1 group M subtype B, UniProt P12493); details: for difference in fluorescence intensity (factor): DNA analogs of the two extreme states H and O
# Source text: This switch has fluorescent labels, * (e.g., FAM, 6-carboxy-fluorescein), at the 5′-end of the chain and Q (a quencher, e.g., dabcyl) near the 3′-end of the DNA segment (light font). […] In the O species, * and Q are within the Förster distance for efficient quenching. However, they are far apart in the extended hairpin form, H, and the switch emits strongly.
# By altering the DNA sequence, K1 is adjusted between 0.1-0.01 (K1=[O]/[H]). […] Upon addition of NCp7 (P), the K1 equilibrium shifts to the right, and the fluorescence signal decreases. The switch is set to a null signal in the presence of a slight excess of P, and is triggered to emit when a competitor, C, sequesters the protein in the P.C complex. […] Knowledge of K1, K2, and the input concentrations, Ot, Pt, and Ct will allow estimation of K3.
# This allows the equilibrium shift upon changing the sequence, or adding NCp7, to be monitored very easily. Simply put, the fluorescence of pure H and O are known, so their populations in a mixed system will be just a linear function of the measured fluorescence.
# proviral DNA synthesis = details: cited from earlier work
# NC = details: cited from earlier work
substance,measurement,setting,value
"FAM-d(GCATGCCTCCGCATGC(T-dabcyl)CCAACACGC)-UAGCGGUGGCUAGC (DNA GCATGCCTCCGCATGCTCCAACACGCUAGCGGUGGCUAGC; sugars from the 5' end d26 r14, [dabcylT] at 17, 5' {FAM}, backbone and methylation of C not given here) [M2]",fluorescence of switch without and with NCp7,NCp7,bright in the absence of NCp7 and dark in its presence
same,difference in fluorescence intensity (factor),NCp7,10
FAMd(GCTATCCACCGATAGC(T-dabcyl)CCAACACGC)-UAGCGGUGGCUAGC (DNA GCTATCCACCGATAGCTCCAACACGCUAGCGGUGGCUAGC; chemistry not fully specified) [M3],equilibration with NCp7,NCp7; 10 nM concentration of the switch,within a minute
FAMd(GCTAGCCACCGCTAGC(T-dabcyl)CCAACACGC)-UAGCGGUGGCUAGC [M1],difference in fluorescence intensity (factor),NCp7,10
c(F-C-dW-R-C-K),In vivo effects,proviral DNA synthesis,suggest impairment of proviral DNA synthesis
same,"competition with NC for in vitro recognition of its RNA, DNA and protein targets",NC,competes with NC
